The values that follow come from ChEMBL document CHEMBL1121558, “Studies on several 7-substituted N,N-dimethyltryptamines” (J Med Chem, 1980).

Assay [1] has as its target Serotonin (5-HT) receptor. Nature of the assay: Compound was evaluated for binding affinity towards 5-hydroxytryptamine receptor in isolated rat fundus preparation measured as pA2.
The species named for the next assay is Rattus norvegicus. Briefly: Effective dose was determined for the behavioral (interoceptive cues) activity of rats. In kind it is functional.

Each structure is given as a SMILES string.

For the compound `COc1cc(OC)c2[nH]cc(CCN(C)C)c2c1`, in assay [1], the pA2 is reported as 5.5. In addition, it took a dose of 3.38 mg/kg to reach the 50% effect level in the assay listed under Rattus norvegicus (ED50).
`COc1ccc(OC)c(CC(C)N)c1` (stereo not given) had an ED50 in the assay filed under Rattus norvegicus of 0.59 mg/kg.
Regarding `CN(C)CCc1c[nH]c2c(Br)cccc12`, in assay [1], the pA2 was 6.51.
Consider `CCc1cccc2c(CCN(C)C)c[nH]c12`, for which the pA2 in assay [1] was found to be 6.31.
`COc1cc2c(CCN(C)C)c[nH]c2c(OC)c1OC` had a pA2 in assay [1] of 5.98.
`COc1ccc2c(CCN(C)C)c[nH]c2c1` displayed an ED50 in the assay listed under Rattus norvegicus of 0.4 mg/kg.
For `COc1cc(C)c2[nH]cc(CCN(C)C)c2c1`, in assay [1], the pA2 came out at 6.61. In the assay listed under Rattus norvegicus, the ED50 was 1.54 mg/kg.
In the case of `Cc1cccc2c(CCN(C)C)c[nH]c12`, the pA2 in assay [1] came to 6.29.
